Experimental data taken from patent US6737383B1, “Herbicidal oxadiazolidines” (priority 1999, dated 2004).

Experiments:
pigweed = assay: Test B pre/postemergence pigweed; type: in vivo, Amaranthus retroflexus
Outline: (§1)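 Herbicidal effect was estimated by eye on a ten-point control scale after plants spent twelve to sixteen days in a greenhouse following soil or foliar treatment. Foliar sprays targeted plants at one to four leaves; all doses were formulated in a non-phytotoxic solvent with surfactant.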

wild oat = assay: Test B pre/postemergence wild oat; type: in vivo, Avena fatua
Outline: as §1

bedstraw = assay: Test B pre/postemergence bedstraw; type: in vivo, Galium aparine
Outline: as §1

smallflower flatsedge = assay: Test B flood test smallflower flatsedge; type: in vivo, Cyperus difformis
Outline: (§2)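 Read-out is a visual response score from 0 (no effect) to 10 (complete control), assigned by comparison with untreated controls. Treatment was applied at the 2-leaf stage, and plants stayed in the greenhouse for twelve to sixteen days before scoring.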

purple nutsedge = assay: Test B pre/postemergence purple nutsedge; type: in vivo, Cyperus rotundus
Outline: as §1

giant foxtail = assay: Test B pre/postemergence giant foxtail; type: in vivo, Setaria faberii
Outline: as §1

surinam grass = assay: Test B pre/postemergence surinam grass; type: in vivo, Brachiaria decumbens
Outline: as §1

morningglory = assay: Test B pre/postemergence morningglory; type: in vivo, Ipomoea hederacea
Outline: as §1

crabgrass = assay: Test B pre/postemergence crabgrass; type: in vivo, Digitaria sanguinalis
Outline: as §1

blackgrass = assay: Test B pre/postemergence blackgrass; type: in vivo, Alopecurus myosuroides
Outline: as §1

velvetleaf = assay: Test B pre/postemergence velvetleaf; type: in vivo, Abutilon theophrasti
Outline: as §1

rice = assay: Test B flood test rice; type: in vivo, Oryza sativa
Outline: as §2

wheat = assay: Test B pre/postemergence wheat; type: in vivo, Triticum aestivum
Outline: as §1

corn = assay: Test B pre/postemergence corn; type: in vivo, Zea mays
Outline: as §1

soybean = assay: Test B pre/postemergence soybean; type: in vivo, Glycine max
Outline: as §1

duck salad = assay: Test B flood test duck salad; type: in vivo, Heteranthera limosa
Outline: as §2

[1] = Preemergence, Rate 62 g/ha, scale of 0 to 10 where 0 is no effect and 10 is complete control
[2] = Preemergence, Rate 125 g/ha, 0 is no effect, 10 is complete control
[3] = Preemergence, Rate 250 g/ha, scale 0 to 10, 0 is no effect, 10 is complete control
[4] = Preemergence, Rate 500 g/ha, scale of 0 to 10 where 0 is no effect and 10 is complete control
[5] = Rate 62 g/ha, Postemergence, scale of 0 to 10 where 0 is no effect and 10 is complete control
[6] = Rate 125 g/ha, Postemergence, scale 0 to 10
[7] = Rate 500 g/ha, Postemergence, scale 0 to 10
[8] = Rate 62 g/ha, headed Pre-emergence (flood test species), scale 0 to 10 (0 no effect, 10 complete control)
[9] = Rate 125 g/ha, Pre-emergence, flood test species, scale 0 to 10 where 0 is no effect and 10 is complete control
[10] = Rate 250 g/ha, Pre-emergence, flood-test species, scale 0 to 10, 0 is no effect, 10 is complete control
[11] = Rate 500 g/ha, headed Pre-emergence (flood test species), scale 0 to 10 (0 no effect, 10 complete control)

In the case of `CSc1ccc(N(C(=O)n2oc(=O)n(-c3ccccc3C)c2=O)C(C)C)cc1` [Compound 205], the “Redroot pigweed plant response rating” value (pigweed; [1]) was 0, the “Redroot pigweed plant response rating (0 to 10 scale)” value (pigweed; [2]) was 0 and the “Redroot pigweed plant response rating” value (pigweed; [3]) was 0. For the same compound, the “Plant response rating, Redroot pigweed” value (pigweed; [4]) was 0, the “Redroot pigweed plant response rating” value (pigweed; [5]) was 0 and the “Redroot pigweed plant response rating” value (pigweed; [6]) was 0. For the same compound, the “Plant response rating (0 to 10; 0 is no effect, 10 is complete control), Redroot pigweed” value (pigweed; Rate 250 g/ha, Postemergence) was 0, the “Redroot pigweed plant response rating” value (pigweed; [7]) was 0 and the “Wild oats plant response rating” value (wild oat; [1]) was 0. For the same compound, the “Wild oats plant response rating” value (wild oat; [3]) was 0, the “Plant response rating, Wild oats” value (wild oat; [4]) was 0 and the “Wild oats plant response rating” value (wild oat; [5]) was 0. For the same compound, the “Wild oats plant response rating” value (wild oat; [6]) was 0, the “Plant response rating (0 to 10; 0 is no effect, 10 is complete control), Wild oats” value (wild oat; Rate 250 g/ha, Postemergence) was 0 and the “Bedstraw plant response rating” value (bedstraw; [1]) was 0. For the same compound, the “Bedstraw plant response rating (0 to 10 scale)” value (bedstraw; [2]) was 0, the “Bedstraw plant response rating” value (bedstraw; [3]) was 0 and the “Plant response rating, Bedstraw” value (bedstraw; [4]) was 0. For the same compound, the “Bedstraw plant response rating” value (bedstraw; [5]) was 0, the “Bedstraw plant response rating” value (bedstraw; [6]) was 0 and the “Plant response rating (0 to 10; 0 is no effect, 10 is complete control), Bedstraw” value (bedstraw; Rate 250 g/ha, Postemergence) was 0. The “Bedstraw plant response rating” value (bedstraw; [7]) was 0, the “S. Flatsedge plant response rating” value (smallflower flatsedge; [8]) was 0 and the “S. Flatsedge plant response rating” value (smallflower flatsedge; [9]) was 0. The “S. Flatsedge plant response rating” value (smallflower flatsedge; [10]) was 0, the “S. Flatsedge plant response rating” value (smallflower flatsedge; Rate 500 g/ha, Pre-emergence, flood test species, scale 0 to 10 (0 no effect, 10 complete control)) was 0 and the “Nutsedge plant response rating” value (purple nutsedge; [3]) was 0. The “Nutsedge plant response rating” value (purple nutsedge; [6]) was 0, the “Nutsedge plant response rating” value (purple nutsedge; [7]) was 0 and the “Giant foxtail plant response rating” value (giant foxtail; [1]) was 0. The “Giant foxtail plant response rating (0 to 10 scale)” value (giant foxtail; [2]) was 0, the “Giant foxtail plant response rating” value (giant foxtail; [3]) was 0 and the “Plant response rating, Giant foxtail” value (giant foxtail; [4]) was 3. The “Giant foxtail plant response rating” value (giant foxtail; [5]) was 0, the “Giant foxtail plant response rating” value (giant foxtail; [6]) was 0 and the “Plant response rating (0 to 10; 0 is no effect, 10 is complete control), Giant foxtail” value (giant foxtail; Rate 250 g/ha, Postemergence) was 0. The “Giant foxtail plant response rating” value (giant foxtail; [7]) was 0, the “B. signalgrass plant response rating” value (surinam grass; [1]) was 0 and the “B. signalgrass plant response rating (0 to 10 scale)” value (surinam grass; [2]) was 0. For the same compound, the “B. signalgrass plant response rating” value (surinam grass; [3]) was 0, the “Plant response rating, B. signalgrass” value (surinam grass; [4]) was 0 and the “B. signalgrass plant response rating” value (surinam grass; [5]) was 0. For the same compound, the “B. signalgrass plant response rating” value (surinam grass; Rate 125 g/ha, Postemergence, scale 0 (no effect) to 10 (complete control)) was 0, the “Plant response rating, B. signalgrass” value (surinam grass; Rate 250 g/ha, Postemergence, scale 0 to 10, 0 is no effect, 10 is complete control) was 0 and the “B. signalgrass plant response rating” value (surinam grass; Rate 500 g/ha, Postemergence, scale 0 to 10, 0 no effect, 10 complete control) was 0. The “Morningglory plant response rating” value (morningglory; [1]) was 0, the “Morningglory plant response rating (0 to 10 scale)” value (morningglory; [2]) was 0 and the “Morningglory plant response rating” value (morningglory; [3]) was 0. For the same compound, the “Plant response rating, Morningglory” value (morningglory; [4]) was 0, the “Morningglory plant response rating” value (morningglory; [5]) was 0 and the “Morningglory plant response rating” value (morningglory; [6]) was 0. The “Plant response rating (0 to 10; 0 is no effect, 10 is complete control), Morningglory” value (morningglory; Rate 250 g/ha, Postemergence) was 1, the “Morningglory plant response rating” value (morningglory; [7]) was 2 and the “Crabgrass plant response rating” value (crabgrass; [1]) was 0. The “Crabgrass plant response rating (0 to 10 scale)” value (crabgrass; [2]) was 0, the “Crabgrass plant response rating” value (crabgrass; [3]) was 1 and the “Plant response rating, Crabgrass” value (crabgrass; [4]) was 8. For the same compound, the “Crabgrass plant response rating” value (crabgrass; [5]) was 0, the “Crabgrass plant response rating” value (crabgrass; [6]) was 0 and the “Plant response rating (0 to 10; 0 is no effect, 10 is complete control), Crabgrass” value (crabgrass; Rate 250 g/ha, Postemergence) was 1. The “Crabgrass plant response rating” value (crabgrass; [7]) was 1, the “Blackgrass plant response rating” value (blackgrass; [1]) was 0 and the “Blackgrass plant response rating (0 to 10 scale)” value (blackgrass; [2]) was 0. The “Blackgrass plant response rating” value (blackgrass; [3]) was 0, the “Plant response rating, Blackgrass” value (blackgrass; [4]) was 0 and the “Blackgrass plant response rating” value (blackgrass; [5]) was 0. For the same compound, the “Blackgrass plant response rating” value (blackgrass; [6]) was 0, the “Plant response rating (0 to 10; 0 is no effect, 10 is complete control), Blackgrass” value (blackgrass; Rate 250 g/ha, Postemergence) was 0 and the “Blackgrass plant response rating” value (blackgrass; [7]) was 0. For the same compound, the “Velvetleaf plant response rating” value (velvetleaf; [1]) was 0, the “Velvetleaf plant response rating” value (velvetleaf; [3]) was 0 and the “Plant response rating, Velvetleaf” value (velvetleaf; [4]) was 0. The “Velvetleaf plant response rating” value (velvetleaf; [5]) was 0, the “Velvetleaf plant response rating” value (velvetleaf; [6]) was 0 and the “Plant response rating (0 to 10; 0 is no effect, 10 is complete control), Velvetleaf” value (velvetleaf; Rate 250 g/ha, Postemergence) was 0. For the same compound, the “Rice plant response rating” value (rice; [8]) was 0, the “Rice plant response rating” value (rice; [9]) was 0 and the “Rice plant response rating” value (rice; [10]) was 0. For the same compound, the “Plant response rating, Rice” value (rice; [11]) was 0, the “Wheat plant response rating” value (wheat; [1]) was 0 and the “Wheat plant response rating” value (wheat; [3]) was 0. The “Plant response rating, Wheat” value (wheat; [4]) was 0, the “Wheat plant response rating” value (wheat; [5]) was 0 and the “Wheat plant response rating” value (wheat; [6]) was 0. For the same compound, the “Plant response rating (0 to 10; 0 is no effect, 10 is complete control), Wheat” value (wheat; Rate 250 g/ha, Postemergence) was 0, the “Corn plant response rating” value (corn; [1]) was 0 and the “Corn plant response rating (0 to 10 scale)” value (corn; [2]) was 0. For the same compound, the “Corn plant response rating” value (corn; [3]) was 0, the “Plant response rating, Corn” value (corn; [4]) was 0 and the “Corn plant response rating” value (corn; [5]) was 0. For the same compound, the “Corn plant response rating” value (corn; [6]) was 0, the “Plant response rating (0 to 10; 0 is no effect, 10 is complete control), Corn” value (corn; Rate 250 g/ha, Postemergence) was 0 and the “Corn plant response rating” value (corn; [7]) was 0. For the same compound, the “Soybean plant response rating” value (soybean; [1]) was 0, the “Soybean plant response rating (0 to 10 scale)” value (soybean; [2]) was 0 and the “Soybean plant response rating” value (soybean; [3]) was 0. The “Plant response rating, Soybean” value (soybean; [4]) was 0, the “Soybean plant response rating” value (soybean; [5]) was 0 and the “Soybean plant response rating” value (soybean; [6]) was 1. For the same compound, the “Plant response rating (0 to 10; 0 is no effect, 10 is complete control), Soybean” value (soybean; Rate 250 g/ha, Postemergence) was 2, the “Soybean plant response rating” value (soybean; [7]) was 2 and the “Ducksalad plant response rating” value (duck salad; [8]) was 0. For the same compound, the “Ducksalad plant response rating” value (duck salad; [9]) was 0, the “Ducksalad plant response rating” value (duck salad; [10]) was 0 and the “Plant response rating, Ducksalad” value (duck salad; [11]) was 0.
